Test results from patent publication US10206889B2, “Emesis treatment” (Repurposed Therapeutics, Inc., priority 2009, dated 2019).

What was measured:
[1] = system: xylazine-induced emesis in cats; test: Xylazine-induced emesis in cats, with vomit scale and defensive behavior (anxiety) scoring; assay type: in vivo, cats (female domestic short-haired felines); details: for level of anxiety 15 minutes after treatment / protection against xylazine-induced emesis / cats vomited: FIG. 1, female cats; for protection against xylazine-induced emesis / cats vomited: fifteen minutes before 0.66 mg/kg xylazine SC, observed 30 minutes; for Defensive Behavior Scale / Mean Defensive Score / % Protection (vomiting) / Mean Latency (mean latency to retch/vomit): cats; for % Protection (vomiting) / Mean Latency (mean latency to retch/vomit): 20 minutes before xylazine 0.66 mg/kg; for anxiety-inducing effect in test subjects / effectiveness in preventing (chemically-induced) emesis: summary statement of the description, no dose given, test subjects
Experimental: (i) 0.9% sodium chloride vehicle (n=6);
[…], 0.66 mg/kg xylazine was administered subcutaneously, and the test subjects where then observed for 30 minutes.
Cats not susceptible to motion sickness were assigned to the xylazine testing group. Xylazine stimulates receptors on a pathway different from that used by motion sickness and thus served as a test of the generality of anti-emetic effects observed with motion testing.
Prior to the evaluation of anti-emetic compounds, the production of an emetic response by xylazine in felines was confirmed in the laboratory. Cats were injected subcutaneously with either a freshly prepared solution of 0.66 mg/kg of xylazine in 0.9% sodium chloride or 0.9% sodium chloride vehicle, both adjusted to an injection volume of 0.1 ml/kg.
One week following the confirmation of an emetic response by the cats, subject cats were given either vehicle or test compound/composition in 0.9% sodium chloride or vehicle (injection volume of 0.1 ml/kg) subcutaneously, 20 minutes before administration of xylazine. […] Animals were scored using the vomit scale developed by Sufi et al., 1979. Additional experiments were separated by at least a 1 week washout period.
A. Vomit Scale Scoring: • 1. Sal I (licking—parasympathetic): 1 pt • 2. Sal II (drool, thin/frothy—early sympathetic): 2 pts • 3. Sal III (stringy saliva, dangles—sympathetic): 4 pts • 4. Defection: 8 pts • 5. Urination: 8 pts • 6. Wretch/vomiting: 16 pts
B. Defensive Behavior Scale: • 1. No defensiveness: normal behavior; • 2. Slight defensiveness: retreating to the rear of the cage when approached and/or growling when being carried; • 3. […] Strong defensiveness: vigorous clawing and biting to prevent being handled. V. Statistical Methods
Dose response curves were analyzed by Cochran's Q-test to establish significant effects. Paired comparisons were made using McNemar's test. Tests for line parallelism, relative potency and ED50 were based on least squares regression in a program for pharmacological statistics. The data from the nonparametric rating scale was analyzed using Friedman's analysis of variance model (ANOVA).

[2] = biological target: T1, 5-HT1A receptor (Human Ligand) (Homo sapiens, UniProt P08908); test: 5-HT1A cellular function, antagonist; assay type: cell-based
T1 sequence (P08908 1-422): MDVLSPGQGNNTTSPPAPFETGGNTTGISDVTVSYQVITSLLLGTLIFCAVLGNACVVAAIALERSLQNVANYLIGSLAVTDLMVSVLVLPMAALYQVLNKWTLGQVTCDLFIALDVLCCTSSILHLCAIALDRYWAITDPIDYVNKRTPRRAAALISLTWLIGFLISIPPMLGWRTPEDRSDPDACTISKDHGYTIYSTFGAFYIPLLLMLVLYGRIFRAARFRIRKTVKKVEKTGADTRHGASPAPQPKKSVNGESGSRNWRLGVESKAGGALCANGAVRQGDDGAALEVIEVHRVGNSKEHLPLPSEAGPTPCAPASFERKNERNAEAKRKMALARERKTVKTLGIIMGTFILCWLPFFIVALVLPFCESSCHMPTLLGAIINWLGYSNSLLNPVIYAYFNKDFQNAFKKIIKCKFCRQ

[3] = biological target: T2, rat ligand of the 5-HT1A receptor (Rattus norvegicus, UniProt P19327); details: Cornfield 1991, Hadrava 1996, Dabrowska 2006; cited from earlier work
T2 sequence (P19327 1-422): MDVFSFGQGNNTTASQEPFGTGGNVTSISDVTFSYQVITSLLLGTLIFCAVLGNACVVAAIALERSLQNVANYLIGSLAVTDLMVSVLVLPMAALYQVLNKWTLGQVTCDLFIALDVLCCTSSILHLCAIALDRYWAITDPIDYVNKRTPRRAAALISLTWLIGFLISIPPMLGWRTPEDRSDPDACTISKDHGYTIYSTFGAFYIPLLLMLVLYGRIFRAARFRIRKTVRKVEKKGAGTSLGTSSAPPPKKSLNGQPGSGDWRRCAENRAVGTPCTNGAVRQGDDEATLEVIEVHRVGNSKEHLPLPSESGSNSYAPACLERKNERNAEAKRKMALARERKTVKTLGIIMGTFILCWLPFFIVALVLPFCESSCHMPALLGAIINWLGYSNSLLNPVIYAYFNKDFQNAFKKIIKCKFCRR

[4] = biological target: T1, 5-HT1A receptor (Human Ligand); test: 5-HT1A cellular function, agonist; assay type: cell-based
Experimental: The percent of control agonist response was recorded for several log concentrations of compounds/compositions.

Row | Structure (SMILES) | Defensive Behavior Scale ([1]; dose 0.16 mg/kg SC) | Mean Defensive Score ([1]; dose 0.16 mg/kg SC) | % Protection (vomiting) ([1]; dose 0.16 mg/kg SC) [%] | Mean Latency (mean latency to retch/vomit) ([1]; dose 0.16 mg/kg SC) [min] | Cellular Function Antagonist (IC50, nM) [2] | type of agonism at the 5-HT1A receptor (previous findings) [3] | level of anxiety 15 minutes after treatment ([1]; 0.08 mg/kg SC) | cats vomited ([1]; 0.08 mg/kg SC) | Defensive Behavior Scale ([1]; dose 0.08 mg/kg SC) | Mean Defensive Score ([1]; dose 0.08 mg/kg SC) | % Protection (vomiting) ([1]; dose 0.08 mg/kg SC) [%] | Mean Latency (mean latency to retch/vomit) ([1]; dose 0.08 mg/kg SC) [min] | anxiety-inducing effect in test subjects [1] | effectiveness in preventing (chemically-induced) emesis [1] | other results
1 | CCCN(CCC)C1CCc2cccc(O)c2C1 (racemic) [R/S-(+/−)-DPAT, (±)-8-Hydroxy-2-(dipropylamino)tetralin] | Moderate | 2.0 | 100.00 | 0.0 | Inactive | – | – | – | – | – | – | – | – | – | level of anxiety 15 minutes after treatment ([1]; 0.16 mg/kg SC): moderate level of anxiety; protection against xylazine-induced emesis ([1]; 0.16 mg/kg SC): 100%
2 | CCCN(CCC)[C@@H]1CCc2cccc(O)c2C1 [R-(+)-DPAT, R(+)-8-hydroxy-2-(dipropylamino)tetralin] | – | – | – | – | Inactive | full agonist | extreme level of anxiety | none of the cats vomited | Strong | 3.0 | 100.00 | 0.00 | moderate to strong | 100% | Defensive Behavior Scale ([1]; dose 0.02 mg/kg SC): Moderate; Mean Defensive Score ([1]; dose 0.02 mg/kg SC): 2.0; % Protection (vomiting) ([1]; dose 0.02 mg/kg SC): 100.00%; Mean Latency (mean latency to retch/vomit) ([1]; dose 0.02 mg/kg SC): 0.00 min; Defensive Behavior Scale ([1]; dose 0.04 mg/kg SC): Strong; Mean Defensive Score ([1]; dose 0.04 mg/kg SC): 3.0; % Protection (vomiting) ([1]; dose 0.04 mg/kg SC): 100.00%; Mean Latency (mean latency to retch/vomit) ([1]; dose 0.04 mg/kg SC): 0.00 min; Cellular Function Agonist: type of agonism ([4]; listed as R(+)-8-OH-DPAT): Full Agonist
3 | CCCN(CCC)[C@H]1CCc2cccc(O)c2C1 [S-(−)-DPAT, S(−)-8-hydroxy-2-(dipropylamino)tetralin] | None | 0.0 | 85.71 | 0.82 | Inactive | partial agonist | did not show any anxiety | 40% | None | 0.0 | 75.00 | 1.58 | no anxiety or only slight anxiety | not fully effective | protection against xylazine-induced emesis ([1]; 0.08 mg/kg SC): 60%; Defensive Behavior Scale ([1]; dose 0.32 mg/kg SC): Slight; Mean Defensive Score ([1]; dose 0.32 mg/kg SC): 1.0; % Protection (vomiting) ([1]; dose 0.32 mg/kg SC): 80.00%; Mean Latency (mean latency to retch/vomit) ([1]; dose 0.32 mg/kg SC): 1.00 min; Cellular Function Agonist: type of agonism ([4]; listed as S(−)-8-OH-DPAT): Full Agonist
